Values after ≈ are worked out from the molar mass of the structure shown.
Key:
Pseudomonas aeruginosa = experiment: Antimicrobial activity against Pseudomonas aeruginosa MTCC 1688 assessed as growth inhibition after 24 hr by turbidimetric method; type: functional; conditions: MTCC 1688, 24 h
Aspergillus clavatus = experiment: Antimicrobial activity against Aspergillus clavatus MTCC 1323 assessed as growth inhibition after 48 hr; type: functional; conditions: MTCC 1323, 48 h
Candida albicans = experiment: Antimicrobial activity against Candida albicans MTCC 227 assessed as growth inhibition after 48 hr; type: functional; conditions: MTCC 227, 48 h
Staphylococcus aureus = experiment: Antimicrobial activity against Staphylococcus aureus MTCC 96 assessed as growth inhibition after 24 hr by turbidimetric method; type: functional; conditions: MTCC 96, 24 h
Escherichia coli = experiment: Antimicrobial activity against Escherichia coli MTCC 443 assessed as growth inhibition after 24 hr by turbidimetric method; type: functional; conditions: MTCC 443, 24 h
Aspergillus niger = experiment: Antimicrobial activity against Aspergillus niger MTCC 282 assessed as growth inhibition after 48 hr; type: functional; conditions: MTCC 282, 48 h
Streptococcus pyogenes = experiment: Antimicrobial activity against Streptococcus pyogenes MTCC 442 assessed as growth inhibition after 24 hr by turbidimetric method; type: functional; conditions: MTCC 442, 24 h
A549 = experiment: Cytotoxicity against Homo sapiens (human) A549 cells by SRB assay; type: cell-based
HepG2 = experiment: Cytotoxicity against Homo sapiens (human) HepG2 cells by SRB assay; type: cell-based
HL-60 = experiment: Cytotoxicity against Homo sapiens (human) HL60 cells by SRB assay; type: cell-based

MIC (Pseudomonas aeruginosa) | MIC (Aspergillus clavatus) | MIC (Candida albicans) | MIC (Staphylococcus aureus) | MIC (Escherichia coli) | MIC (Aspergillus niger) | MIC (Streptococcus pyogenes) | Compound | Activity (A549) | Activity (HepG2) | Activity (HL-60)
250 µg/mL (≈ 427 µM) | 250 µg/mL (≈ 427 µM) | 500 µg/mL (≈ 854 µM) | 250 µg/mL (≈ 427 µM) | 100 µg/mL (≈ 171 µM) | 250 µg/mL (≈ 427 µM) | 100 µg/mL (≈ 171 µM) | COc1ccc(C(=O)Nc2nc(C)c(C(=O)N/N=C3\S/C(=C\c4ccccc4O)C(=O)N3c3ccccc3)s2)cc1 |  |  | 
250 µg/mL (≈ 425 µM) | 500 µg/mL (≈ 851 µM) | 500 µg/mL (≈ 851 µM) | 500 µg/mL (≈ 851 µM) | 500 µg/mL (≈ 851 µM) | 250 µg/mL (≈ 425 µM) | 250 µg/mL (≈ 425 µM) | COc1ccc(C(=O)Nc2nc(C)c(C(=O)N/N=C3\S/C(=C\c4ccc(F)cc4)C(=O)N3c3ccccc3)s2)cc1 |  |  | 
50 µg/mL (≈ 83.4 µM) | 50 µg/mL (≈ 83.4 µM) | 50 µg/mL (≈ 83.4 µM) | 100 µg/mL (≈ 167 µM) | 25 µg/mL (≈ 41.7 µM) | 100 µg/mL (≈ 167 µM) | 50 µg/mL (≈ 83.4 µM) | COc1ccc(/C=C2\S/C(=N\NC(=O)c3sc(NC(=O)c4ccc(OC)cc4)nc3C)N(c3ccccc3)C2=O)cc1 | Non-toxic | Non-toxic | Non-toxic
 | 100 µg/mL (≈ 283 µM) | 500 µg/mL (≈ 1420 µM) |  |  | 100 µg/mL (≈ 283 µM) |  | COC1=CC(=O)C[C@@H](C)[C@]12Oc1c(Cl)c(OC)cc(OC)c1C2=O [GRISEOFULVIN] |  |  | 
250 µg/mL (≈ 414 µM) | 250 µg/mL (≈ 414 µM) | 500 µg/mL (≈ 828 µM) | 250 µg/mL (≈ 414 µM) | 250 µg/mL (≈ 414 µM) | 250 µg/mL (≈ 414 µM) | 500 µg/mL (≈ 828 µM) | COc1ccc(C(=O)Nc2nc(C)c(C(=O)N/N=C3\S/C(=C\c4ccccc4Cl)C(=O)N3c3ccccc3)s2)cc1 |  |  | 
250 µg/mL (≈ 427 µM) | 250 µg/mL (≈ 427 µM) | 250 µg/mL (≈ 427 µM) | 50 µg/mL (≈ 85.4 µM) | 50 µg/mL (≈ 85.4 µM) | 100 µg/mL (≈ 171 µM) | 250 µg/mL (≈ 427 µM) | COc1ccc(C(=O)Nc2nc(C)c(C(=O)N/N=C3\S/C(=C\c4ccc(O)cc4)C(=O)N3c3ccccc3)s2)cc1 | Non-toxic | Non-toxic | Non-toxic
1000 µg/mL (≈ 3260 µM) | 1000 µg/mL (≈ 3260 µM) | 1000 µg/mL (≈ 3260 µM) | > 1000 µg/mL | > 1000 µg/mL | > 1000 µg/mL | 1000 µg/mL (≈ 3260 µM) | COc1ccc(C(=O)Nc2nc(C)c(C(=O)NN)s2)cc1 |  |  | 
250 µg/mL (≈ 428 µM) | 250 µg/mL (≈ 428 µM) | 250 µg/mL (≈ 428 µM) | 250 µg/mL (≈ 428 µM) | 100 µg/mL (≈ 171 µM) | 250 µg/mL (≈ 428 µM) | 100 µg/mL (≈ 171 µM) | COc1ccc(C(=O)Nc2nc(C)c(C(=O)N/N=C3\S/C(=C\c4cccc(C)c4)C(=O)N3c3ccccc3)s2)cc1 |  |  | 

More lines, now with the values behind:

Compound | MIC (Pseudomonas aeruginosa) | MIC (Aspergillus clavatus) | MIC (Candida albicans) | MIC (Staphylococcus aureus) | MIC (Escherichia coli) | MIC (Aspergillus niger) | MIC (Streptococcus pyogenes) | Activity (A549) | Activity (HepG2) | Activity (HL-60)
COc1ccc(C(=O)Nc2nc(C)c(C(=O)N/N=C3\S/C(=C\c4ccc(Cl)cc4)C(=O)N3c3ccccc3)s2)cc1 | 500 µg/mL (≈ 828 µM) | 500 µg/mL (≈ 828 µM) | 500 µg/mL (≈ 828 µM) | 250 µg/mL (≈ 414 µM) | 500 µg/mL (≈ 828 µM) | 500 µg/mL (≈ 828 µM) | 500 µg/mL (≈ 828 µM) |  |  | 
COc1ccc(C(=O)Nc2nc(C)c(C(=O)N/N=C3\S/C(=C\c4cccc(OC)c4)C(=O)N3c3ccccc3)s2)cc1 | 250 µg/mL (≈ 417 µM) | 250 µg/mL (≈ 417 µM) | 500 µg/mL (≈ 834 µM) | 250 µg/mL (≈ 417 µM) | 50 µg/mL (≈ 83.4 µM) | 250 µg/mL (≈ 417 µM) | 250 µg/mL (≈ 417 µM) |  |  | 
COc1ccc(C(=O)Nc2nc(C)c(C(=O)N/N=C3\S/C(=C\c4cccc(O)c4)C(=O)N3c3ccccc3)s2)cc1 | 100 µg/mL (≈ 171 µM) | 100 µg/mL (≈ 171 µM) | 500 µg/mL (≈ 854 µM) | 100 µg/mL (≈ 171 µM) | 100 µg/mL (≈ 171 µM) | 250 µg/mL (≈ 427 µM) | 250 µg/mL (≈ 427 µM) |  |  | 
COc1ccc(C(=O)Nc2nc(C)c(C(=O)N/N=C3\S/C(=C\c4ccccc4OC)C(=O)N3c3ccccc3)s2)cc1 | 100 µg/mL (≈ 167 µM) | 100 µg/mL (≈ 167 µM) | 100 µg/mL (≈ 167 µM) | 100 µg/mL (≈ 167 µM) | 250 µg/mL (≈ 417 µM) | 100 µg/mL (≈ 167 µM) | 100 µg/mL (≈ 167 µM) | Non-toxic | Non-toxic | Non-toxic
COc1ccc(C(=O)Nc2nc(C)c(C(=O)N/N=C3\S/C(=C\c4ccccc4)C(=O)N3c3ccccc3)s2)cc1 | 500 µg/mL (≈ 878 µM) | 500 µg/mL (≈ 878 µM) | 500 µg/mL (≈ 878 µM) | 500 µg/mL (≈ 878 µM) | 250 µg/mL (≈ 439 µM) | 500 µg/mL (≈ 878 µM) | 250 µg/mL (≈ 439 µM) |  |  | 
COc1ccc(C(=O)Nc2nc(C)c(C(=O)N/N=C3\S/C(=C\c4ccccc4C)C(=O)N3c3ccccc3)s2)cc1 | 25 µg/mL (≈ 42.8 µM) | 100 µg/mL (≈ 171 µM) | 100 µg/mL (≈ 171 µM) | 250 µg/mL (≈ 428 µM) | 25 µg/mL (≈ 42.8 µM) | 100 µg/mL (≈ 171 µM) | 100 µg/mL (≈ 171 µM) | Non-toxic | Non-toxic | Non-toxic
COc1ccc(C(=O)Nc2nc(C)c(C(=O)N/N=C3\S/C(=C\c4ccc([N+](=O)[O-])cc4)C(=O)N3c3ccccc3)s2)cc1 | 500 µg/mL (≈ 813 µM) | 500 µg/mL (≈ 813 µM) | 500 µg/mL (≈ 813 µM) | 500 µg/mL (≈ 813 µM) | 250 µg/mL (≈ 407 µM) | 500 µg/mL (≈ 813 µM) | 500 µg/mL (≈ 813 µM) |  |  | 
COc1ccc(C(=O)Nc2nc(C)c(C(=O)N/N=C3\S/C(=C\c4ccc(C)cc4)C(=O)N3c3ccccc3)s2)cc1 | 50 µg/mL (≈ 85.7 µM) | 25 µg/mL (≈ 42.8 µM) | 100 µg/mL (≈ 171 µM) | 50 µg/mL (≈ 85.7 µM) | 12.5 µg/mL (≈ 21.4 µM) | 25 µg/mL (≈ 42.8 µM) | 50 µg/mL (≈ 85.7 µM) | Non-toxic | Non-toxic | Non-toxic
COc1ccc(C(=O)Nc2nc(C)c(C(=O)N/N=C3\SCC(=O)N3c3ccccc3)s2)cc1 | 500 µg/mL (≈ 1040 µM) | 250 µg/mL (≈ 519 µM) | 1000 µg/mL (≈ 2080 µM) | 500 µg/mL (≈ 1040 µM) | 250 µg/mL (≈ 519 µM) | 1000 µg/mL (≈ 2080 µM) | 500 µg/mL (≈ 1040 µM) |  |  | 
O=C(O)c1cn(C2CC2)c2cc(N3CCNCC3)c(F)cc2c1=O [CIPROFLOXACIN] |  |  |  | 50 µg/mL (≈ 151 µM) | 25 µg/mL (≈ 75.4 µM) |  | 50 µg/mL (≈ 151 µM) |  |  | 
COc1ccc(C(=O)Nc2nc(C)c(C(=O)N/N=C3\S/C(=C\c4ccccc4[N+](=O)[O-])C(=O)N3c3ccccc3)s2)cc1 | 250 µg/mL (≈ 407 µM) | 250 µg/mL (≈ 407 µM) | 1000 µg/mL (≈ 1630 µM) | 500 µg/mL (≈ 813 µM) | 500 µg/mL (≈ 813 µM) | 250 µg/mL (≈ 407 µM) | 250 µg/mL (≈ 407 µM) |  |  | 
COc1ccc(C(=O)Nc2nc(C)c(C(=O)NNC(=S)Nc3ccccc3)s2)cc1 | 500 µg/mL (≈ 1130 µM) | > 1000 µg/mL | 1000 µg/mL (≈ 2260 µM) | 500 µg/mL (≈ 1130 µM) | 500 µg/mL (≈ 1130 µM) | 1000 µg/mL (≈ 2260 µM) | 500 µg/mL (≈ 1130 µM) |  |  | 
